Experimental data as given in PMC4407307 (Journal of Biomedical Science, 2015).

Target: SHV-128 (Enterobacter cloacae, UniProt D5LIR5)
Assay: biochemical

SHV-128, sequence (D5LIR5 entry or part of it): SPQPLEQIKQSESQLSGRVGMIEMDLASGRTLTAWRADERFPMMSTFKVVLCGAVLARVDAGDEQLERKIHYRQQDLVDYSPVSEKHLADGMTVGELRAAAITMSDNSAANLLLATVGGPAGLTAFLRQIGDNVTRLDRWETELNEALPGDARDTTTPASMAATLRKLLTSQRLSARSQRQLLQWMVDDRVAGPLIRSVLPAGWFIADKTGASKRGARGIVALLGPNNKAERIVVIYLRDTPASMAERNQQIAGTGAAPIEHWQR

O=C(O)[C@H]1/C(=C/CO)O[C@@H]2CC(=O)N21 [clavulanic acid]
IC50: 4.2 µM
